From PubChem BioAssay AID248 (DTP/NCI, 2004)
Toxic doses and inconclusive results are not listed.

System: L1210 leukemia ip in BDF1 mice, survival T/C
Experiment: NCI In Vivo Anticancer Drug Screen. Data for tumor model L1210 Leukemia (intraperitoneal) in B6D2F1 (BDF1) mice
Conditions: endpoint: mean survival time, higher = longer survival
How it was run: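 In this screen, tumor-bearing mice given compound are compared to those given vehicle, and their survival values are reported as a treated-to-control quotient.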

[1] = dose: 50.0 mg/kg/injection, schedule: Q01DX009 (ip), vehicle: Klucel (hydroxypropylcellulose) (HPC)
[2] = dose: 50.0 mg/kg/injection, schedule: Q04DX003 (ip), vehicle: saline
[3] = dose: 100.0 mg/kg/injection, schedule: Q01DX009 (ip), vehicle: Klucel (hydroxypropylcellulose) (HPC)
[4] = dose: 100.0 mg/kg/injection, schedule: Q01DX Z (ip), vehicle: saline
[5] = dose: 100.0 mg/kg/injection, schedule: Q04DX003 (ip), vehicle: Klucel (hydroxypropylcellulose) (HPC)
[6] = dose: 100.0 mg/kg/injection, schedule: Q04DX003 (ip), vehicle: saline
[7] = dose: 200.0 mg/kg/injection, schedule: Q01DX009 (ip), vehicle: Klucel (hydroxypropylcellulose) (HPC)
[8] = dose: 100.0 mg/kg/injection, schedule: Q01DX001 (ip), vehicle: saline
[9] = dose: 200.0 mg/kg/injection, schedule: Q01DX001 (ip), vehicle: saline
[10] = dose: 400.0 mg/kg/injection, schedule: Q01DX001 (ip), vehicle: saline
[11] = dose: 100.0 mg/kg/injection, schedule: Q01DX001 (ip), vehicle: carboxymethylcellulose (CMC)
[12] = dose: 200.0 mg/kg/injection, schedule: Q01DX001 (ip), vehicle: carboxymethylcellulose (CMC)
[13] = dose: 400.0 mg/kg/injection, schedule: Q01DX001 (ip), vehicle: carboxymethylcellulose (CMC)
[14] = dose: 50.0 mg/kg/injection, schedule: Q01DX009 (ip), vehicle: saline with Tween-80
[15] = dose: 100.0 mg/kg/injection, schedule: Q01DX009 (ip), vehicle: saline with Tween-80
[16] = dose: 200.0 mg/kg/injection, schedule: Q01DX009 (ip), vehicle: saline with Tween-80
[17] = dose: 100.0 mg/kg/injection, schedule: Q04DX002 (ip), vehicle: saline with Tween-80
[18] = dose: 200.0 mg/kg/injection, schedule: Q04DX002 (ip), vehicle: saline with Tween-80
[19] = dose: 400.0 mg/kg/injection, schedule: Q04DX002 (ip), vehicle: saline with Tween-80
[20] = dose: 5.0 mg/kg/injection, schedule: Q01DX001 (ip), vehicle: saline
[21] = dose: 200.0 mg/kg/injection, schedule: Q04DX003 (ip), vehicle: Klucel (hydroxypropylcellulose) (HPC)
[22] = dose: 400.0 mg/kg/injection, schedule: Q04DX003 (ip), vehicle: Klucel (hydroxypropylcellulose) (HPC)
[23] = dose: 100.0 mg/kg/injection, schedule: Q01DX009 (ip), vehicle: saline
[24] = dose: 200.0 mg/kg/injection, schedule: Q01DX009 (ip), vehicle: saline
[25] = dose: 200.0 mg/kg/injection, schedule: Q04DX003 (ip), vehicle: saline
[26] = dose: 400.0 mg/kg/injection, schedule: Q04DX003 (ip), vehicle: saline

With Nc1cc(N)nc(S(=O)O)n1 the T/C (dose: 25.0 mg/kg/injection, schedule: Q04DX003 (ip), vehicle: saline) was 93 % of control, the T/C (dose: 44.0 mg/kg/injection, schedule: Q01DX Z (ip), vehicle: saline) was 119 % of control and the T/C [1] was 95 % of control. The T/C [2] was 92 % of control, the T/C (dose: 66.0 mg/kg/injection, schedule: Q01DX Z (ip), vehicle: saline) was 113 % of control and the T/C [3] was 95 % of control. For the same compound, the T/C [4] was 101 % of control, the T/C [5] was 107 % of control and the T/C [6] was 101 % of control. The T/C [7] was 89 % of control.

With Brc1ccc(SSc2ccc(Br)cc2)cc1 the T/C [8] was 110 % of control, the T/C [9] was 95 % of control and the T/C [10] was 95 % of control.

For CN(C)S(=O)(=O)c1ccccc1C(O)(c1ccccc1)c1ccccc1, the T/C [11] was 95 % of control, the T/C [12] was 93 % of control and the T/C [13] was 98 % of control.

In the case of CCN(CC)CCCNc1nc(C(Cl)(Cl)Cl)nc2ccc(I)cc12, the T/C [3] is reported as 96 % of control and the T/C [7] is reported as 100 % of control.

For O=C(O)CC1OCC=C2CN3CCC45C6=CC(=O)C(=O)C([N+](=O)[O-])=C6NC4C1C2CC35 (stereo not given), the T/C (dose: 25.0 mg/kg/injection, schedule: Q01DX001 (ip), vehicle: carboxymethylcellulose (CMC)) was 98 % of control.

With O=C1C2CCC1C(N1CCCC1)CC2 (stereo not given) the T/C (dose: 75.0 mg/kg/injection, schedule: Q01DX001 (ip), vehicle: saline) was 101 % of control and the T/C (dose: 150.0 mg/kg/injection, schedule: Q01DX001 (ip), vehicle: saline) was 104 % of control.

With O=S(=O)(O)Sc1ncnc2nc[nH]c12 the T/C (dose: 125.0 mg/kg/injection, schedule: Q01DX009 (ip), vehicle: water) was 162 % of control, the T/C (dose: 250.0 mg/kg/injection, schedule: Q01DX009 (ip), vehicle: water) was 159 % of control and the T/C (dose: 250.0 mg/kg/injection, schedule: Q04DX003 (ip), vehicle: water) was 153 % of control.

With Cc1cccc(C)c1NC(=O)NS(=O)(=O)c1ccccc1 the T/C [14] was 90 % of control, the T/C [15] was 100 % of control and the T/C (dose: 100.0 mg/kg/injection, schedule: Q04DX003 (ip), vehicle: acetone) was 95 % of control. The T/C [16] was 95 % of control and the T/C (dose: 200.0 mg/kg/injection, schedule: Q04DX003 (ip), vehicle: acetone) was 103 % of control.

CCCCSC(C)(SCCCC)SCCCC was tested, and the T/C [17] was 97 % of control, the T/C [18] was 101 % of control and the T/C [19] was 116 % of control.

C[N+](C)(C)CC1COCCO1 (stereo not given) was tested, and the T/C [20] was 105 % of control.

CN1C2CCCC1CC(=O)NC2 (stereo not given) was tested, and the T/C (dose: 15.0 mg/kg/injection, schedule: Q01DX001 (ip), vehicle: saline) was 107 % of control, the T/C (dose: 15.0 mg/kg/injection, schedule: Q04DX002 (ip), vehicle: saline) was 101 % of control and the T/C (dose: 30.0 mg/kg/injection, schedule: Q01DX001 (ip), vehicle: saline) was 106 % of control. The T/C (dose: 30.0 mg/kg/injection, schedule: Q04DX002 (ip), vehicle: saline) was 101 % of control and the T/C (dose: 60.0 mg/kg/injection, schedule: Q04DX002 (ip), vehicle: saline) was 108 % of control.

In the case of CC(C)(C)CCCC1C(=O)N(c2ccccc2)N(c2ccccc2)C1=O, the T/C [1] is reported as 110 % of control, the T/C [3] is reported as 110 % of control and the T/C [5] is reported as 106 % of control. For the same compound, the T/C [7] was 112 % of control, the T/C [21] was 96 % of control and the T/C [22] was 101 % of control.

With CN(C)C(C)(C)CO the T/C [23] was 98 % of control, the T/C [6] was 96 % of control and the T/C [24] was 98 % of control. For the same compound, the T/C [25] was 98 % of control and the T/C [26] was 101 % of control.

In the case of NC(=O)c1[nH]cnc1/N=N/N(CCO)Cc1ccccc1, the T/C (dose: 50.0 mg/kg/injection, schedule: Q01DX001 (ip), vehicle: water) is reported as 98 % of control, the T/C (dose: 50.0 mg/kg/injection, schedule: Q04DX003 (ip), vehicle: water) is reported as 105 % of control and the T/C (dose: 100.0 mg/kg/injection, schedule: Q01DX001 (ip), vehicle: water) is reported as 96 % of control. The T/C [15] was 98 % of control, the T/C (dose: 100.0 mg/kg/injection, schedule: Q04DX003 (ip), vehicle: water) was 105 % of control and the T/C (dose: 200.0 mg/kg/injection, schedule: Q01DX001 (ip), vehicle: water) was 98 % of control. The T/C [16] was 102 % of control, the T/C (dose: 200.0 mg/kg/injection, schedule: Q04DX003 (ip), vehicle: water) was 101 % of control and the T/C (dose: 400.0 mg/kg/injection, schedule: Q01DX001 (ip), vehicle: water) was 101 % of control. The T/C (dose: 400.0 mg/kg/injection, schedule: Q01DX009 (ip), vehicle: saline with Tween-80) was 95 % of control and the T/C (dose: 400.0 mg/kg/injection, schedule: Q04DX003 (ip), vehicle: water) was 97 % of control.

O=[N+]([O-])c1ccc(N=Cc2ccccc2O)cc1.O=[N+]([O-])c1ccc(N=Cc2ccccc2O)cc1.[Cu] was tested, and the T/C (dose: 12.5 mg/kg/injection, schedule: Q01DX009 (ip), vehicle: saline with Tween-80) was 100 % of control, the T/C (dose: 25.0 mg/kg/injection, schedule: Q01DX009 (ip), vehicle: saline with Tween-80) was 94 % of control and the T/C [14] was 93 % of control.

With COc1ccc(-n2nnnc2N)cc1 the T/C (dose: 100.0 mg/kg/injection, schedule: Q01DX001 (ip), vehicle: Klucel (hydroxypropylcellulose) (HPC)) was 99 % of control, the T/C (dose: 200.0 mg/kg/injection, schedule: Q01DX001 (ip), vehicle: Klucel (hydroxypropylcellulose) (HPC)) was 102 % of control and the T/C (dose: 400.0 mg/kg/injection, schedule: Q01DX001 (ip), vehicle: Klucel (hydroxypropylcellulose) (HPC)) was 96 % of control.

With O=[N+]([O-])c1ccc(C=Nc2ccc3c(c2)C(Br)c2ccccc2-3)cc1 (stereo not given) the T/C [4] was 91 % of control, the T/C (dose: 200.0 mg/kg/injection, schedule: Q01DX Z (ip), vehicle: saline) was 90 % of control and the T/C (dose: 400.0 mg/kg/injection, schedule: Q01DX Z (ip), vehicle: saline) was 95 % of control.

With CC1(C)N=C(N)N=C(N)N1c1cccc(CCCCc2cccc(NC(=O)CBr)c2)c1 the T/C [20] was 102 % of control, the T/C (dose: 10.0 mg/kg/injection, schedule: Q01DX001 (ip), vehicle: saline) was 98 % of control and the T/C (dose: 20.0 mg/kg/injection, schedule: Q01DX001 (ip), vehicle: saline) was 98 % of control. The T/C (dose: 40.0 mg/kg/injection, schedule: Q01DX001 (ip), vehicle: saline) was 112 % of control.

In the case of CSc1nc(SCc2ccccc2)[nH]c(=O)n1, the T/C [17] is reported as 98 % of control, the T/C [18] is reported as 117 % of control and the T/C [19] is reported as 98 % of control.

In the case of C(=N\Nc1nnc(N/N=C/c2cccc(OCc3ccccc3)c2)c2ccccc12)/c1cccc(OCc2ccccc2)c1, the T/C (dose: 50.0 mg/kg/injection, schedule: Q01DX001 (ip), vehicle: saline) is reported as 101 % of control, the T/C [8] is reported as 95 % of control and the T/C [9] is reported as 92 % of control. For the same compound, the T/C [10] was 97 % of control.

For CCCCC(CC)CNCCOC(=O)c1ccc(N)cc1 (stereo not given), the T/C (dose: 75.0 mg/kg/injection, schedule: Q01DX001 (ip), vehicle: other) was 92 % of control and the T/C (dose: 150.0 mg/kg/injection, schedule: Q01DX001 (ip), vehicle: other) was 100 % of control.

Nc1ncnc(N)c1NC(=O)c1cccc([N+](=O)[O-])c1 was tested, and the T/C [5] was 98 % of control, the T/C [21] was 103 % of control and the T/C [22] was 93 % of control.

With COc1ccc(C(=O)c2cc(OC)c(OC)c(OC)c2)cc1OC the T/C [2] was 98 % of control, the T/C [11] was 102 % of control and the T/C [23] was 108 % of control. For the same compound, the T/C [6] was 100 % of control, the T/C [12] was 103 % of control and the T/C [24] was 112 % of control. The T/C [25] was 104 % of control, the T/C [13] was 103 % of control and the T/C (dose: 400.0 mg/kg/injection, schedule: Q01DX009 (ip), vehicle: saline) was 101 % of control. For the same compound, the T/C [26] was 96 % of control.
